Data published in article PMC8362126, “Proteolysis Targeting Chimera (PROTAC) for Macrophage Migration Inhibitory Factor (MIF) Has Anti‐Proliferative Activity in Lung Cancer Cells” (Angewandte Chemie (International Ed. in English), 2021).
Where “and” joins values, the source holds several entries; their conditions need not be identical. Equal entries are not always repeated. Entries after “also recorded” stand apart in the source; their conditions may differ.

Key:
[1] = target: T1, MIF (Homo sapiens, UniProt P14174); assay: MIF degradation in A549 cells, western-blot; assay type: cell-based; set-up: endogenous in cells; host or cells: A549 (ATCC CCL-185); conditions: A549 cells; for rescue of MD9 mediated MIF degradation: 2 hours pretreatment (1 100 µM, 3 50 µM, 4 50 µM, Bortezomib), then 10 µM MD9 12 h; for rescue of MD13 mediated MIF degradation: co-treatment (Bortezomib) or 1 hour pretreatment (3, 4) with MD13
T1 sequence (P14174 2-115 limits assumed): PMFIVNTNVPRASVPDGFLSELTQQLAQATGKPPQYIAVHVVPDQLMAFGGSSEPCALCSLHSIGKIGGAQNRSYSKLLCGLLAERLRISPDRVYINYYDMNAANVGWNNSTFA
Procedure: The concentration dependence of PROTAC MD13‐mediated induction of MIF degradation in A549 cells was investigated using western‐blot. […] The MIF levels were normalized to the vehicle treated control and plotted to the respective MD13 concentrations. This provided a DC50 of around 100 nM and a maximal degradation of around 90–95 % at concentrations higher than 1 μM (Figure 3 B). The DC50 of MD13 measured by ELISA assay was about 200 nM (Figure 3 C), which is in line with the result from western‐blot. […]
Cell lysates were prepared using the protocol described above. About 10−40 μg of total protein was mixed with the 4× Laemmli Loading Dye (250 mM Tris, pH 6.8, 40% glycerol, 5% SDS, 0.005% bromophenol blue, 4% β-mercaptoethanol) and heated at 95−100 °C for 5 min and loaded onto a 12% Bis-Tris gel (Bio-Rad Laboratories, #4561084) and proteins were separated at 120V. Afterwards, proteins were transferred to polyvinylidene fluoride (PVDF) membranes, subsequently non-specific antibody binding was blocked with 5% nonfat dry milk (BIO-RAD, #1706404) in TBST buffer and incubated overnight at 4 °C with one of the following primary antibodies: anti-MIF (1:1000, ThermoFisher, #PA5-27343 ) or anti-β-actin (1:10000 Cell Signalling, #8457). The membranes were further incubated with a goat anti-rabbit HRP-conjugated secondary antibody (1:2000, DAKO, p0448) for 2 h at room temperature. Proteins were visualized with an ECLTM Prime Western Blotting System (GE Healthcare #RPN2232). The immunoblot was generated by ChemiDoc MP Imaging Systems (Bio-Rad) and analyzed by the ImageJ software. […]
As a control, the same experiment was repeated and analyzed by a western-blot assay (Figure 3B). The potency estimated from the Western blot assay was 1 µM (Figure 3C), which is consistent with the result from the ELISA assay. The “Hook effect” […]

[2] = target: T1, MIF; assay: MIF degradation in A549 cells, cell lysate-based ELISA; set-up: endogenous in cells; host or cells: A549 (ATCC CCL-185); conditions: for Dmax at 20 µM / degradation [%] 2 μM / degradation (%) 20 µM: vs DMSO, mean±SD n=3
Procedure: In addition, A549 cells have been successfully used for assessing activity of cereblon ligand‐based PROTACs previously.[42] Therefore, A549 is a suitable cell line for evaluating the effect of our putative MIF‐directed PROTACs MD1 to MD12 on MIF protein levels. The reduction in MIF levels were monitored in A549 cells that were treated with two different PROTAC concentrations (20 and 2 μM) for 12 h in order to estimate the dose dependency, which is important for PROTACs because of the Hook effect.[35] The MIF levels in cell lysates were analyzed using an enzyme‐linked immunosorbent assay (ELISA).
S3. ELISA screening of MIF protein level on MIF-directed PROTACs
Cell culture. Human A549 lung cancer cells (ATCCCCL-185) or HEK293 kidney […]
containing 10% (v/v) fetal bovine serum (FBS), 100 U/mL penicillin/streptomycin […]
ELISA. 7×10^5 A549 cells per well were plated in 6-well plates. The next day, cells were treated with a solution of compounds or the vehicle for 12 h. Subsequently, the culture medium was removed and cells were washed twice with cold PBS and collected after trypsin (0.5 mL) degestion. Cells were then lyzed in lysis buffer (150 mM NaCl, 50 mM Hepes pH 7.5, 5 mM EDTA, 0.1% (w/v) NP40) containing protease inhibitor cocktail (Roche, #11836153001) and resuspended vigourously. The supernatant was collected after spinning down at 16 000g at 4 °C for 30 min. The total protein concentration was determined with PierceTM BCA protein assay kit ( ThermoFisher , #23225). The protein concentration was normalized between samples. The relative MIF levels from 1µg total protein were determined by ELISA with the human MIF DuoSet ELISA kit according to the instructions of the manufacturer (R&D systems, #DY289).
Figure S1. Screening of compounds for MIF degradation activity by cell lysate -based ELISA.
A549 cells were treated with compounds at (A) 20 or (B) 2 µM for 12 h. Data was normalized […]
(1 picture or pasted object on this page, not shown here)

[3] = target: T1, MIF; assay: MIF catalyzed 4-HPP tautomerization assay; assay type: biochemical; conditions: for IC50: 4-HPP conversion assay; for Ki: MIF catalyzed 4-HPP tautomerization, n=3
Procedure: S2. MIF Tautomerase activity IC50 study
The protocol for measuring inhibition of MIF tautomerase enzyme activity and enzyme kinetics was described previously.[8] Briefly, 180 µL of a 500 nM MIF solution in boric acid buffer (435 mM, pH 6.2) was mixed with 10 µL of a 20 mM EDTA solution in demiwater and 10 µL of a solution of the desired compound dissolved in DMSO or blanc DMSO. This mixture was pre-incubated at room temperature for 10 min. Next, 50 µL of this mixture was mixed with 50 µL of a 1 mM 4-HPP solution in ammonium acetate buffer (50 mM, pH 6.0). Subsequently, MIF tautomerase activity was monitored by measuring the increase of UV absorbance at 306 nm over time. MIF tautomerase activity in the presence a blank DMSO dilution was set to 100% enzyme activity. Non-catalyzed conversion of the substrate in absence of MIF was set to 0%.
Data from the first three minutes were used to calculate the initial velocities. All experiments were repeated three times and calculations were performed with the program GraphPad Prism.
Table S1. 4-HPP conversion assay results of MIF PROTACs
(also on this page, place not known: p rotocol previously. subs trate log [MD-1] (10^-6 M) Activity of MIF tautomerase(%) -2 -1 0 1 2 0 50 100 log [MD-2] (10^-6 M) Activity of MIF tautomerase(%) -2 -1 0 1 2 0 50 100)

[4] = target: T1, MIF; assay: MIF degradation in A549 cells, cell lysate-based ELISA; set-up: endogenous in cells; host or cells: A549 (ATCC CCL-185); conditions: 12 h, vs DMSO, mean±SD n=3

Compound | Dmax at 20 µM ([2]; A549, 12 h, A549 cells, 12 h) [%] | degradation [%] 2 μM ([2]; A549 cells, 12 h) | IC50 [3] [nM] | Ki [3] [nM] | further results
CC(C)C[C@H](NC(=O)[C@H](Cc1ccccc1)NC(=O)c1cnccn1)B(O)O [Bortezomib] | – | – | – | – | rescue of MD9 mediated MIF degradation [1]: considerably decreased; also recorded: rescued; rescue of MD13 mediated MIF degradation [1]: inhibited the degradation of MIF; rescue of MD13 mediated MIF degradation ([1]; listed as bortezomib): able to abolish the MD13 triggered degradation
O=C1CCC(N2C(=O)c3cccc(NCCCCC(=O)Nc4ccc(N5Cc6ccc(O)cc6OC5=O)cc4)c3C2=O)C(=O)N1 (centres unmarked) [MD7] | – | n.s. | 82 ± 4 | 55 ± 3 | Dmax at 20 µM ([2]; A549 cells, 12 h): 61 ± 7%
O=C(CCCCNc1cccc2c1C(=O)N(C1CCC(=O)NC1=O)C2=O)NCc1ccc(N2Cc3ccc(O)cc3OC2=O)cc1 (centres unmarked) [MD8] | – | 21±7% | 129 ± 8 | 86 ± 5 | Dmax at 20 µM ([2]; A549 cells, 12 h): 51 ± 4%
O=C1CCC(N2C(=O)c3cccc(NCCCCCCC(=O)Nc4ccc(N5Cc6ccc(O)cc6OC5=O)cc4)c3C2=O)C(=O)N1 (centres unmarked) [MD9] | 92 ± 10 | 55±4% | 76 ± 4 | 51 ± 3 | Dmax ([2]; A549, A549 cells, 12 h, ELISA, read-out: maximal degradation): > 90%; DC50 ([2]; A549 cells, 12 h, ELISA, read-out: half-maximal degradation concentration (DC50)): 1500 nM and ~1500 nM; Hook effect ([2]; A549 cells, at 20 μM, ELISA and western-blot): Hook effect; DC50 ([1]; 12 h, western-blot, read-out: DC50 (potency estimated from western blot)): 1000 nM and ~1500 nM; time of treatment after which MIF degradation becomes visible ([1]; MD9 at 10 μM): 3 h; degradation [%] 0.2 μM [4]: 24±4%
O=C(Cc1ccc(N2Cc3ccc(O)cc3OC2=O)cc1)NCc1cn(-c2ccc(CC(=O)Nc3cccc4c3C(=O)N(C3CCC(=O)NC3=O)C4=O)cc2)nn1 (centres unmarked) [MD12] | 38 ± 6 | n.s. | 138 ± 6 | 92 ± 4 | –
O=C1CCC(N2C(=O)c3cccc(NCCCCCCCCCC(=O)Nc4ccc(N5Cc6ccc(O)cc6OC5=O)cc4)c3C2=O)C(=O)N1 (centres unmarked) [MD14] | – | 64±2% | 97 ± 6 | 65 ± 4 | degradation [%] 0.2 μM [4]: 51±2%
COC(=O)CC1CC(c2ccc(O)cc2)=NO1 (centres unmarked) [compound 1, ISO 1] | – | – | – | – | rescue of MD9 mediated MIF degradation [1]: partial to complete rescue; also recorded: rescued

The next lines start with results.

Dmax at 20 µM ([2]; A549, 12 h, A549 cells, 12 h) [%] | degradation [%] 2 μM ([2]; A549 cells, 12 h) | IC50 [3] [nM] | Ki [3] [nM] | Compound | further results
16 ± 7 | n.s. | 262 ± 35 | 175 ± 23 | O=C1CCC(N2C(=O)c3cccc(NCc4cn(CC(=O)Nc5ccc(-c6cc7ccc(O)cc7oc6=O)cc5)nn4)c3C2=O)C(=O)N1 (centres unmarked) [MD1] | –
31 ± 3 | n.s. | 288 ± 25 | 192 ± 17 | O=C1CCC(N2C(=O)c3cccc(NC(=O)CCc4cn(CC(=O)Nc5ccc(-c6cc7ccc(O)cc7oc6=O)cc5)nn4)c3C2=O)C(=O)N1 (centres unmarked) [MD2] | –
22 ± 9 | n.s. | 182 ± 16 | 121 ± 11 | O=C1CCC(N2C(=O)c3cccc(NC(=O)CCCc4cn(CC(=O)Nc5ccc(-c6cc7ccc(O)cc7oc6=O)cc5)nn4)c3C2=O)C(=O)N1 (centres unmarked) [MD3] | –
50 ± 3 | n.s. | 233 ± 26 | 155 ± 17 | O=C1CCC(N2C(=O)c3cccc(NC(=O)CCCCc4cn(CC(=O)Nc5ccc(-c6cc7ccc(O)cc7oc6=O)cc5)nn4)c3C2=O)C(=O)N1 (centres unmarked) [MD4] | –
58 ± 8 | n.s. | 895 ± 82 | 597 ± 55 | O=C1CCC(N2C(=O)c3cccc(NC(=O)CCCCc4cn(CCC(=O)Nc5ccc(-c6cc7ccc(O)cc7oc6=O)cc5)nn4)c3C2=O)C(=O)N1 (centres unmarked) [MD5] | –
– | n.s. | 1500 ± 130 | 999 ± 87 | O=C1CCC(N2C(=O)c3cccc(NC(=O)Cc4ccc(-n5cc(CCCC(=O)Nc6ccc(-c7cc8ccc(O)cc8oc7=O)cc6)nn5)cc4)c3C2=O)C(=O)N1 (centres unmarked) [MD6] | degradation (%) 20 µM ([2]; A549 cells, 12 h): n.s. and did not trigger MIF reduction
– | 55±9% | 147 ± 13 | 98 ± 9 | O=C1CCC(N2C(=O)c3cccc(NCc4cn(CCC(=O)Nc5ccc(N6Cc7ccc(O)cc7OC6=O)cc5)nn4)c3C2=O)C(=O)N1 (centres unmarked) [MD10] | –
– | n.s. | 143 ± 11 | 95 ± 7 | O=C1CCC(N2C(=O)c3cccc(NC(=O)CCCc4cn(CCC(=O)Nc5ccc(N6Cc7ccc(O)cc7OC6=O)cc5)nn4)c3C2=O)C(=O)N1 (centres unmarked) [MD11] | degradation (%) 20 µM ([2]; A549 cells, 12 h): 40±8%
– | – | – | 370 ± 30 | COc1ccc(-c2cc3ccc(O)cc3oc2=O)cc1 [compound 2, reference compound] | –
